Test results published in PubChem BioAssay (NCI).
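The compound was tested at five concentrations on cells cultured in 96-well plates, with a 48-hour exposure period. GI50 marks 50% less growth. TGI: concentration producing complete growth inhibition.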

Key:
Assay in all cases: NCI anticancer screen, dose series, 48 h
CCRF-CEM leukemia = system: CCRF-CEM leukemia
OVCAR-8 ovarian = system: OVCAR-8 ovarian
SW-620 colon = system: SW-620 colon
SNB-19 CNS = system: SNB-19 CNS
MALME-3M melanoma = system: MALME-3M melanoma
MDA-MB-435 = system: MDA-MB-435
U251 CNS = system: U251 CNS
RXF 393 renal = system: RXF 393 renal
PC-3 prostate = system: PC-3 prostate
NCI-H460 lung = system: NCI-H460 lung
HOP-62 NSCLC = system: HOP-62 NSCLC
UACC-257 melanoma = system: UACC-257 melanoma
DU-145 prostate = system: DU-145 prostate
IGROV1 ovarian = system: IGROV1 ovarian
UACC-62 melanoma = system: UACC-62 melanoma
RPMI-8226 leukemia = system: RPMI-8226 leukemia
OVCAR-4 ovarian = system: OVCAR-4 ovarian
COLO 205 colon = system: COLO 205 colon
NCI-H226 lung = system: NCI-H226 lung
A498 renal = system: A498 renal
EKVX NSCLC = system: EKVX NSCLC
SF-295 CNS = system: SF-295 CNS
M14 melanoma = system: M14 melanoma
SR leukemia = system: SR leukemia
KM12 colon = system: KM12 colon
SF-268 CNS = system: SF-268 CNS
SN12C renal = system: SN12C renal
HCT-116 colon = system: HCT-116 colon
LOX IMVI melanoma = system: LOX IMVI melanoma
HS 578T breast = system: HS 578T breast
UO-31 renal = system: UO-31 renal
NCI/ADR-RES ovarian = system: NCI/ADR-RES ovarian
NCI-H23 lung = system: NCI-H23 lung
SNB-75 CNS = system: SNB-75 CNS
SK-OV-3 ovarian = system: SK-OV-3 ovarian
MOLT-4 leukemia = system: MOLT-4 leukemia
A549 NSCLC = system: A549 NSCLC
MCF7 breast = system: MCF7 breast
TK-10 renal = system: TK-10 renal
K-562 leukemia = system: K-562 leukemia
HCT-15 colon = system: HCT-15 colon
SK-MEL-28 melanoma = system: SK-MEL-28 melanoma
SK-MEL-5 melanoma = system: SK-MEL-5 melanoma
OVCAR-5 ovarian = system: OVCAR-5 ovarian
OVCAR-3 ovarian = system: OVCAR-3 ovarian
HT29 colon = system: HT29 colon
786-0 renal = system: 786-0 renal
HCC-2998 colon = system: HCC-2998 colon
HL-60(TB) leukemia = system: HL-60(TB) leukemia
NCI-H522 lung = system: NCI-H522 lung
SF-539 CNS = system: SF-539 CNS
CAKI-1 renal = system: CAKI-1 renal
ACHN renal = system: ACHN renal
MDA-MB-231 breast = system: MDA-MB-231 breast
SK-MEL-2 melanoma = system: SK-MEL-2 melanoma
BT-549 breast = system: BT-549 breast
T-47D breast = system: T-47D breast

## O=c1[nH]nc2c3c(cccc13)NC(CN1Cc3ccccc3C1)=N2
CCRF-CEM leukemia
  GI50: 4.42 µM
  TGI: > 100 µM
OVCAR-8 ovarian
  GI50: 15 µM
  TGI: > 100 µM
SW-620 colon
  GI50: 7.03 µM
  TGI: > 100 µM
SNB-19 CNS
  GI50: 52.3 µM
  TGI: > 100 µM
MALME-3M melanoma
  GI50: 49.1 µM
  TGI: > 100 µM
MDA-MB-435
  GI50: 4.39 µM
  TGI: > 100 µM
U251 CNS
  GI50: 8.05 µM
  TGI: > 100 µM
RXF 393 renal
  GI50: 3.79 µM
  TGI: 74.1 µM
PC-3 prostate
  GI50: 7.23 µM
  TGI: > 100 µM
NCI-H460 lung
  GI50: 5.25 µM
  TGI: > 100 µM
HOP-62 NSCLC
  GI50: 3.2 µM
  TGI: > 100 µM
UACC-257 melanoma
  GI50: 37 µM
  TGI: > 100 µM
DU-145 prostate
  GI50: 5 µM
  TGI: > 100 µM
IGROV1 ovarian
  GI50: 3.87 µM
  TGI: > 100 µM
UACC-62 melanoma
  GI50: 4.44 µM
  TGI: > 100 µM
RPMI-8226 leukemia
  GI50: 8.17 µM
  TGI: > 100 µM
OVCAR-4 ovarian
  GI50: 5.77 µM
  TGI: > 100 µM
COLO 205 colon
  GI50: 4.09 µM
  TGI: 89.7 µM
NCI-H226 lung
  GI50: 30.3 µM
  TGI: > 100 µM
A498 renal
  GI50: 4.7 µM
  TGI: > 100 µM
EKVX NSCLC
  GI50: 3.92 µM
  TGI: > 100 µM
SF-295 CNS
  GI50: 5.61 µM
  TGI: > 100 µM
M14 melanoma
  GI50: 4.08 µM
  TGI: > 100 µM
SR leukemia
  GI50: 5.13 µM
  TGI: > 100 µM
KM12 colon
  GI50: 4.41 µM
  TGI: > 100 µM
SF-268 CNS
  GI50: 7.4 µM
  TGI: > 100 µM
SN12C renal
  GI50: 6.75 µM
  TGI: > 100 µM
HCT-116 colon
  GI50: 6.77 µM
  TGI: > 100 µM
LOX IMVI melanoma
  GI50: 3.16 µM
  TGI: > 100 µM
HS 578T breast
  GI50: 37.4 µM
  TGI: > 100 µM
UO-31 renal
  GI50: 4.79 µM
  TGI: > 100 µM
NCI/ADR-RES ovarian
  GI50: 25.7 µM
  TGI: > 100 µM
NCI-H23 lung
  GI50: 4.41 µM
  TGI: > 100 µM
SNB-75 CNS
  GI50: 2.77 µM
  TGI: > 100 µM
SK-OV-3 ovarian
  GI50: 3.11 µM
  TGI: > 100 µM
MOLT-4 leukemia
  GI50: 4.56 µM
  TGI: > 100 µM
A549 NSCLC
  GI50: 5.69 µM
  TGI: > 100 µM
MCF7 breast
  GI50: 3.82 µM
  TGI: > 100 µM
TK-10 renal
  GI50: 8.89 µM
  TGI: > 100 µM
K-562 leukemia
  GI50: 8.19 µM
  TGI: > 100 µM
HCT-15 colon
  GI50: 6.13 µM
  TGI: > 100 µM
SK-MEL-28 melanoma
  GI50: 15.3 µM
  TGI: > 100 µM
SK-MEL-5 melanoma
  GI50: 8.42 µM
  TGI: > 100 µM
OVCAR-5 ovarian
  GI50: 5.73 µM
  TGI: > 100 µM
OVCAR-3 ovarian
  GI50: 5.64 µM
  TGI: > 100 µM
HT29 colon
  GI50: 3.45 µM
  TGI: > 100 µM
786-0 renal
  GI50: 6.62 µM
  TGI: > 100 µM
HCC-2998 colon
  GI50: 4.35 µM
  TGI: > 100 µM
HL-60(TB) leukemia
  GI50: 9.13 µM
  TGI: > 100 µM
NCI-H522 lung
  GI50: 2.77 µM
  TGI: > 100 µM
SF-539 CNS
  GI50: 7.9 µM
  TGI: > 100 µM
CAKI-1 renal
  GI50: 4.92 µM
  TGI: > 100 µM
ACHN renal
  GI50: 4.92 µM
  TGI: > 100 µM
MDA-MB-231 breast
  GI50: 5.5 µM
  TGI: > 100 µM
SK-MEL-2 melanoma
  GI50: > 100 µM
  TGI: > 100 µM
BT-549 breast
  GI50: 34.7 µM
  TGI: > 100 µM
T-47D breast
  GI50: 5.27 µM
  TGI: > 100 µM
